Measurements reported in paper PMC10424186 (Journal of Medicinal Chemistry, 2023).
“Also recorded” adds a separate entry of the source. Read-outs that look alike come from different tables or passages of the source. Blank lines part the entries; values can stand above or below the compound they belong to.

Assays:
human JMJD5 = human JMJD5 (Homo sapiens, UniProt Q8N371); test: SPE-MS JMJD5 inhibition assay (hydroxylation of RPS6 128–148 peptide); type: biochemical
Source text: Synthetic peptides with sequences based on reported human 2OG oxygenase substrates were used in SPE-MS inhibition assays: RPS6, residues 128–148, for JMJD5;[42] HIF-α CODD, residues 558–574, for PHD2;[70] HIF-α CAD, residues 788–822, for FIH;[70] H3_1-15K9me3, histone 3 (H3), residues 1–15 with K9 of H3-bearing three methyl groups at the N^ε-position, K4 of H3 substituted by an alanine residue, and K14 of H3 by an isoleucine residue,[73] for KDM4E; and RPL27A, residues 31–49, for RIOX2 (Mina53).[44] All peptides were prepared as C-terminal amides by GL Biochem (Shanghai) Ltd. A synthetic thioether-linked cyclic peptide, hFX-CP101–119,[48] which was designed based on the reported cellular AspH substrate human coagulation factor X (hFX, residues 101–119; C101 was substituted for a D-alanine residue and C112 for a serine residue),[79] was used as AspH substrate; it was prepared with a C-terminal amide according to literature protocols.[80]
Cosubstrate/cofactor stock solutions [L-ascorbic acid/LAA: 50 mM in MQ-grade water; 2-oxoglutarate/2OG: 10 mM in MQ-grade water; ammonium iron(II) sulfate hexahydrate/FAS/(NH4)2Fe(SO4)2·6H2O: 400 mM in 20 mM HCl diluted to 1 mM in MQ-grade water] were freshly prepared from commercial solids (Sigma-Aldrich) on the day the assays were performed. The JMJD5,[42] PHD2,[70] FIH,[70] KDM4E,[72],[73] RIOX2,[44] and AspH[45] SPE-MS inhibition assays were performed as described in the cited literature, using isolated recombinant human enzymes (His6-thioredoxin-JMJD5,[42] His6-PHD2_181–426,[70] His6-FIH,[70] His6-KDM4E,[72],[73] His6-RIOX2_26–465,[87],[88] and His6-AspH315–758[48],[80]) and synthetic peptide substrates (RPS6_128–148 for JMJD5;[42] HIF-α CODD558–574 for PHD2;[70] HIF-α CAD788–822 for FIH;[70] H3_1–15K9me3 for KDM4E;[73] RPL27A31–49 for RIOX2;[44],[71] and hFX-CP101–119 for AspH;[45],[48] see above). For JMJD5, PHD2, FIH, RIOX2, and AspH, substrate hydroxylation was monitored (+16 Da mass shift), while for the KDM4E substrate, demethylation was monitored (−14 Da mass shift) by SPE-MS.

KDM4E [1] = molecular target: T1, KDM4E (Homo sapiens, UniProt B2RXH2); settings: cited from earlier work
T1 construct: made in house; host or cells: Escherichia coli
T1 sequence (B2RXH2 1-506): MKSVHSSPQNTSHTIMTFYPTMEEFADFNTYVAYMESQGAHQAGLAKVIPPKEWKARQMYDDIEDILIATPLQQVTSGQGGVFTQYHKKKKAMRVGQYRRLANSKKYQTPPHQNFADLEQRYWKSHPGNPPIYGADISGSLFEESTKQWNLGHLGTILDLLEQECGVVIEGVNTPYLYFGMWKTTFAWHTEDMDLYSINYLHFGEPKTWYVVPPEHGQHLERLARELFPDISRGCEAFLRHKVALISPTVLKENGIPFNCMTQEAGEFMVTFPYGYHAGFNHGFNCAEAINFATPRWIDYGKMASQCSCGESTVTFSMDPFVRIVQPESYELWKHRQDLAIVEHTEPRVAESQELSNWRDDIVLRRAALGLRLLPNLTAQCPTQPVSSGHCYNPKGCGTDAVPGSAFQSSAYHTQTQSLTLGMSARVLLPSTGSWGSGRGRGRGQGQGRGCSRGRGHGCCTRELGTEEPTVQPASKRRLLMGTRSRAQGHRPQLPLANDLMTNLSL

AspH [2] = molecular target: T2, AspH (Homo sapiens, UniProt Q12797); settings: cited from earlier work; for IC50 AspH: Supporting Table S1, reported SPE-MS value, ref SI 18
T2 construct: N-terminally His6-tagged AspH315–758; made in house; host or cells: Escherichia coli
T2 sequence (Q12797 315-758): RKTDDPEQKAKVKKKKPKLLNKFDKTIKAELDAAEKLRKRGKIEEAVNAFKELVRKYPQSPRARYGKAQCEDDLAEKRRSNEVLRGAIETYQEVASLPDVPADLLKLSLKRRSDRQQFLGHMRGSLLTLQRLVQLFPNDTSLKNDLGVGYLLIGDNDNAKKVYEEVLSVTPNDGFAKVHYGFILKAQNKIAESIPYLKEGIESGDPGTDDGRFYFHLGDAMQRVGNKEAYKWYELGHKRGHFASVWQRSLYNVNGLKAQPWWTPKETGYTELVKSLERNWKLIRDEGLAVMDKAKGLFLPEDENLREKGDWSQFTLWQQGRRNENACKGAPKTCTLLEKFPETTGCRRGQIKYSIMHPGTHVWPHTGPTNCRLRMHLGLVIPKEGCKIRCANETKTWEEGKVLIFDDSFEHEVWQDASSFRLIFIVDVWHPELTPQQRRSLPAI

KDM4E [3] = molecular target: T1, KDM4E; test: SPE-MS KDM4E inhibition assay (demethylation of H3 1–15 K9me3); type: biochemical; settings: Table 2, 10.0 μM H3 1–15 K9me3, n = 2, mean ± SD
Experimental: (§1) H3_1-15K9me3, histone 3 (H3), residues 1–15 with K9 of H3-bearing three methyl groups at the N^ε-position, K4 of H3 substituted by an alanine residue, and K14 of H3 by an isoleucine residue,[73] for KDM4E; and RPL27A, residues 31–49, for RIOX2 (Mina53).[44]
(§2) Cosubstrate/cofactor stock solutions [L-ascorbic acid/LAA: 50 mM in MQ-grade water; 2-oxoglutarate/2OG: 10 mM in MQ-grade water; ammonium iron(II) sulfate hexahydrate/FAS/(NH4)2Fe(SO4)2·6H2O: 400 mM in 20 mM HCl diluted to 1 mM in MQ-grade water] were freshly prepared from commercial solids (Sigma-Aldrich) on the day the assays were performed. The JMJD5,[42] PHD2,[70] FIH,[70] KDM4E,[72],[73] RIOX2,[44] and AspH[45] […] For JMJD5, PHD2, FIH, RIOX2, and AspH, substrate hydroxylation was monitored (+16 Da mass shift), while for the KDM4E substrate, demethylation was monitored (−14 Da mass shift) by SPE-MS.

AspH [4] = molecular target: T2, AspH; test: SPE-MS AspH inhibition assay (hFX-CP101–119 hydroxylation); type: biochemical; settings: Table 2; His6-AspH315–758 0.05 μM, 1.0 μM hFX-CP101–119; n = 2, mean ± SD
Experimental: as §1, §2

PHD2 = molecular target: T3, PHD2 (Homo sapiens, UniProt Q9GZT9); test: SPE-MS PHD2 inhibition assay (HIF-1α CODD hydroxylation); type: biochemical; settings: Table 2; PHD2 181–426 […], 5.0 μM HIF-1α CODD; n = 2, mean ± SD
T3 construct: His6-PHD2_181–426; made in house; host or cells: Escherichia coli
Experimental: as §1, §2

RIOX2 = molecular target: T4, RIOX2 (Homo sapiens, UniProt Q8IUF8); test: SPE-MS RIOX2 inhibition assay (RPL27A31–49 hydroxylation); type: biochemical; settings: Table 2; His6-RIOX2 26–465 […], 5.0 μM RPL27A31–49; n = 2, mean ± SD
T4 construct: N-terminally His6-tagged RIOX2_26–465; made in house; host or cells: Escherichia coli
Experimental: Cosubstrate/cofactor stock solutions [L-ascorbic acid/LAA: 50 mM in MQ-grade water; 2-oxoglutarate/2OG: 10 mM in MQ-grade water; ammonium iron(II) sulfate hexahydrate/FAS/(NH4)2Fe(SO4)2·6H2O: 400 mM in 20 mM HCl diluted to 1 mM in MQ-grade water] were freshly prepared from commercial solids (Sigma-Aldrich) on the day the assays were performed. […] For JMJD5, PHD2, FIH, RIOX2, and AspH, substrate hydroxylation was monitored (+16 Da mass shift), while for the KDM4E substrate, demethylation was monitored (−14 Da mass shift) by SPE-MS.

KDM4E [5] = molecular target: T1, KDM4E; settings: Supporting Table S1; reported FDH-coupled spectrophotometric assay; ref SI 17; cited from earlier work
[6] = Table 1, JMJD5 […], 2OG 2.0 μM, Fe(II) 2.0 μM, LAA 100 μM, RPS6 128–148 2.0 μM, pH 7.5, 20 °C, n = 3, mean ± SD, read-out: IC50 JMJD5
[7] = isolated recombinant JMJD5, SPE-MS
[8] = isolated recombinant JMJD5, SPE-MS, approximate values, read-out: IC50 for JMJD5 inhibition
[9] = Table 2, JMJD5 […], 2OG 2.0 μM, Fe(II) 2.0 μM, LAA 100 μM, RPS6 128–148 2.0 μM, n = 3, mean ± SD, read-out: IC50 JMJD5
[10] = Supporting Table S1, JMJD5 […], 2OG 2.0 μM, RPS6 128-148 2.0 μM, pH 7.5, 20 °C, n = 3, mean ± SD, read-out: IC50 JMJD5
[11] = supplementary CSV, read-out: IC50 JMJD5

T3 sequence (Q9GZT9 181-426): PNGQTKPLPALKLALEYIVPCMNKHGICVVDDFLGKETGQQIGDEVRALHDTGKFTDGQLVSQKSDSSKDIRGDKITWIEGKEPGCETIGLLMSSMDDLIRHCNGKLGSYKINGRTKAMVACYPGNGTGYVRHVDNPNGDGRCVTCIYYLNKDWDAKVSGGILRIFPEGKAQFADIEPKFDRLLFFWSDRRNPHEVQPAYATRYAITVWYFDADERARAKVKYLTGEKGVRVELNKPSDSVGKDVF
human JMJD5, sequence (Q8N371 whole entry, the tested form may be a part): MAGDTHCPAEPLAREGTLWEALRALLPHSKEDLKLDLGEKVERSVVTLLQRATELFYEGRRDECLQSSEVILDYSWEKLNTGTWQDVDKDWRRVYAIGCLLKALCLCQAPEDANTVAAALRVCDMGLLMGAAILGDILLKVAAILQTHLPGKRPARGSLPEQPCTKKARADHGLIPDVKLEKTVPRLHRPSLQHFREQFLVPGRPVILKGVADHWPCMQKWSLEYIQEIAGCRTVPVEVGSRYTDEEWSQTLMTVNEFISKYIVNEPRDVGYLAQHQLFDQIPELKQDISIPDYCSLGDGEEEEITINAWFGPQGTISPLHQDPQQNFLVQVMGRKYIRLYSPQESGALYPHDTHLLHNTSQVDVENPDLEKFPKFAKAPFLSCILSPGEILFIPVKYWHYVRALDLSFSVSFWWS
T4 sequence (Q8IUF8 26-465): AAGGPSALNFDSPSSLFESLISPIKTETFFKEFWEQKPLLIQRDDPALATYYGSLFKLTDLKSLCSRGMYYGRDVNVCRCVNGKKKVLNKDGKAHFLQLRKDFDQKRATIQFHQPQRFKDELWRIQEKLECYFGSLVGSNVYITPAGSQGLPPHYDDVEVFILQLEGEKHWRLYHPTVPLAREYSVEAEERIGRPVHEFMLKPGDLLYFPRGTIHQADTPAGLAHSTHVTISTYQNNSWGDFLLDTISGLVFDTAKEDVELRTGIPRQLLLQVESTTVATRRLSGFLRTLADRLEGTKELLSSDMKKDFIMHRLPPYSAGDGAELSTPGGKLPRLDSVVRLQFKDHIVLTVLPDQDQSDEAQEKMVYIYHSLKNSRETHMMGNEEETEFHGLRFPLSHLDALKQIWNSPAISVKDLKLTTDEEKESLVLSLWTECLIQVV

SMILES: O=C(O)c1ccnc(C(=O)O)c1C(F)(F)F [Compound 14, 3-trifluoromethyl-2,4-PDCA]
IC50 (human JMJD5; [6]): > 50 µM
JMJD5 inhibition (in words) (human JMJD5; [7]): did not efficiently inhibit JMJD5
IC50 (human JMJD5; [8]): > 50 µM
KDM4E inhibition (in words) (KDM4E [1]): not to inhibit KDM4E
AspH inhibition (in words) (AspH [2]; isolated recombinant AspH): does not inhibit

SMILES: O=C(O)c1cc(C(=O)O)c(C(F)(F)F)cn1 [Compound 16, 5-trifluoromethyl-2,4-PDCA]
IC50 (human JMJD5; [6]): > 50 µM
JMJD5 inhibition (in words) (human JMJD5; [7]): did not efficiently inhibit JMJD5; also recorded: does not inhibit JMJD5
IC50 (human JMJD5; [8]): > 50 µM
KDM4E inhibition (in words) (KDM4E [1]): not to inhibit KDM4E

SMILES: COc1ccc(CNc2cnc(C(=O)O)cc2C(=O)O)cc1 [Compound 20h, 5-((4-methoxybenzyl)amino)pyridine-2,4-dicarboxylic acid]
IC50 (KDM4E [3]): 15.5 ± 1.9 µM
IC50 (AspH [4]): 2 ± 0.4 µM
IC50 (PHD2): > 50 µM
IC50 (RIOX2): 27.6 ± 7.1 µM

SMILES: COc1ccccc1CNc1cnc(C(=O)O)cc1C(=O)O [Compound 20i, 5-((2-methoxybenzyl)amino)pyridine-2,4-dicarboxylic acid]
IC50 (KDM4E [3]): 11.3 ± 2.9 µM
IC50 (AspH [4]): 0.9 ± 0.2 µM
IC50 (PHD2): > 50 µM
IC50 (RIOX2): > 50 µM

SMILES: O=C(O)c1ccc(Nc2c(C(=O)O)ccnc2C(=O)O)cc1 [Compound 22]
IC50 (human JMJD5; [10]): > 50 µM
IC50 (human JMJD5; [11]): > 50 µM
IC50 AspH (AspH [2]): inactive
IC50 (KDM4E [5]): 66 µM

SMILES: O=C(O)c1ccnc(C(=O)O)c1Nc1ccc([N+](=O)[O-])cc1 [Compound 23]
IC50 (human JMJD5; [10]): > 50 µM
IC50 (human JMJD5; [11]): > 50 µM
IC50 AspH (AspH [2]): inactive
IC50 (KDM4E [5]): 95 µM

Further lines, results first:

IC50 (human JMJD5; [9]): 0.9 ± 0.2 µM
IC50 (KDM4E [3]): 5.9 ± 0.6 µM
IC50 (AspH [4]): 1.8 ± 0.1 µM
IC50 (PHD2): > 50 µM
IC50 (RIOX2): 27.9 ± 6.7 µM
SMILES: O=C(O)c1cc(C(=O)O)c(NCCc2ccccc2)cn1 [Compound 20b]

IC50 (human JMJD5; [9]): 0.3 ± 0.1 µM
IC50 (KDM4E [3]): 28.2 ± 4.1 µM
IC50 (AspH [4]): 2.8 ± 0.4 µM
IC50 (PHD2): > 50 µM
IC50 (RIOX2): 27.3 ± 6.7 µM
SMILES: O=C(O)c1cc(C(=O)O)c(NCCCc2ccccc2)cn1 [Compound 20c]
